US9580411B2, “Substituted sulfonamide compounds” (Hoffmann-La Roche Inc., priority 2012, dated 2017)
pIC50: −log10 of the molar value.

target: hTRPA1 (Homo sapiens (Human), UniProt O75762); experiment: Dose response calcium flux assay (FLIPR), ChanTest hTRPA1-CHO stably transfected cell line; type: cell-based; conditions: CHO-K1 Tet-On human TRPA1 cells, cinnamaldehyde agonist (final 100 uM)
Description: IC50 Determinations of Exemplified Compounds Dose Response Assay: Chan Test hTRPA1-CHO Stably Transfected Cell Line
CHO-K1 Tet-On_HOMSA_TRPA1_Clone_20
Chinese Hamster Ovary cells, inducible expression
• Ham's F-12 with 10% tetracycline-free FBS • 1× penicillin-streptomycin • 1× glutamax • 0.01 mg/ml Blasticidin • 0.40 mg/ml Zeocin • The cell line doubling rate was ˜15 hours. […] Experiments were run at 24 hours post induction. Plating Conditions CHOK1/TRPA1 Cells: • Harvested cells with 0.025% trypsin/EDTA. • Resuspended cells in growth media without selection antibiotics. • Measured cell density and diluted to 2.4×10^5 cells/ml in media containing 1 ug/ml Doxycycline Plate 25 ul/well into 384 well black/clear tissue culture-treated plates. • Incubated overnight at 37° C. Calcium Flux Assay: Day of Assay: Reagents: • Replacement Buffer: Hank's Balanced Salt Solution, 20 mM HEPES along with 0.005% BSA and 2× Probenecid • Dye Loading Buffer: Cal-3 NW Calcium dye was prepared by dissolving the contents of one vial with […] Hank's Balanced Salt Solution containing 20 mM HEPES. • Control compounds for CHOK1/TRPA1 cells: AP-18, stock 10 mM, prepare 3.5× compound dilution in a Compound Buffer (HBSS/20 mM HEPES/0.005% BSA)—final concentration 10 uM. • Preparation of Cinnamaldehyde (agonist addition): FW=132.16 • Specific gravity=1.046 gm/cc • 1.32 gm/1.046 gm/cc=1.26 ml of stock • Add 1.74 ml DMSO=3.3 M stock • Working solution 4.5× (final 100 uM in Compound Buffer: HBSS/20 mM HEPES/0.005% BSA) • Compounds dilutions were prepared from 5 or 10 mM stock (100% DMSO): • Adjustments of volumes and concentrations were made at time of titration to reflect desired final assay concentrations. • Compounds were tested at either 20 μM three folds dilution 11 steps out or 30 μM two folds dilution 11 steps out. • 3 μl of diluted compound were transferred into Weidmann 384-well plate in duplicates side-by-side. • Compound plates were resuspended with 100 ul of HBSS/20 mM HEPES/0.005% BSA buffer (Compound Buffer): • column 1A-H: buffer/DMSO (bk) • column 2A-H: AP-18 (control antagonist for CHOK1 TRPA1 cells) • column 1I-P: ATP (control for CHOK1 teton cells) • column 2 I-P: 2APB (control antagonist for CHOK1/TRPM8 cells). Growth media was removed from the cell plates (20 ul) and 20 ul of the Replacement Buffer was added followed by addition of 25 ul of diluted dye. All three steps were performed using a Plate Washer BioTek 407. The plates were then incubated for 30′ at RT.
After incubation, both the cell and compound plates were brought to the FLIPR and 20 ul of the diluted compounds/antagonist/bk were transferred to the cell plates by the FLIPR. Plates were then incubated for 30′ at room temperature. After 30′ incubation, plates were returned to the FLIPR and 20 ul of 4.5× Cinnamaldehyde was added to the cell plates. During the compound addition as well as agonist addition, fluorescence readings were taken simultaneously from all 384 wells of the cell plate every 1.5 seconds. Five readings were taken to establish a stable baseline, then 20 ul of sample was rapidly (30 ul/sec) and simultaneously added to each well of the cell plate. The fluorescence was continuously monitored before, during and after sample/agonist addition for a total elapsed time of 100 seconds (compound addition) and 120 seconds (agonist addition). Responses (increase in peak fluorescence) in each well following agonist addition was determined. The initial fluorescence reading from each well, prior to ligand stimulation, was used a zero baseline value for the data from that well.

hTRPA1, sequence (O75762 whole entry): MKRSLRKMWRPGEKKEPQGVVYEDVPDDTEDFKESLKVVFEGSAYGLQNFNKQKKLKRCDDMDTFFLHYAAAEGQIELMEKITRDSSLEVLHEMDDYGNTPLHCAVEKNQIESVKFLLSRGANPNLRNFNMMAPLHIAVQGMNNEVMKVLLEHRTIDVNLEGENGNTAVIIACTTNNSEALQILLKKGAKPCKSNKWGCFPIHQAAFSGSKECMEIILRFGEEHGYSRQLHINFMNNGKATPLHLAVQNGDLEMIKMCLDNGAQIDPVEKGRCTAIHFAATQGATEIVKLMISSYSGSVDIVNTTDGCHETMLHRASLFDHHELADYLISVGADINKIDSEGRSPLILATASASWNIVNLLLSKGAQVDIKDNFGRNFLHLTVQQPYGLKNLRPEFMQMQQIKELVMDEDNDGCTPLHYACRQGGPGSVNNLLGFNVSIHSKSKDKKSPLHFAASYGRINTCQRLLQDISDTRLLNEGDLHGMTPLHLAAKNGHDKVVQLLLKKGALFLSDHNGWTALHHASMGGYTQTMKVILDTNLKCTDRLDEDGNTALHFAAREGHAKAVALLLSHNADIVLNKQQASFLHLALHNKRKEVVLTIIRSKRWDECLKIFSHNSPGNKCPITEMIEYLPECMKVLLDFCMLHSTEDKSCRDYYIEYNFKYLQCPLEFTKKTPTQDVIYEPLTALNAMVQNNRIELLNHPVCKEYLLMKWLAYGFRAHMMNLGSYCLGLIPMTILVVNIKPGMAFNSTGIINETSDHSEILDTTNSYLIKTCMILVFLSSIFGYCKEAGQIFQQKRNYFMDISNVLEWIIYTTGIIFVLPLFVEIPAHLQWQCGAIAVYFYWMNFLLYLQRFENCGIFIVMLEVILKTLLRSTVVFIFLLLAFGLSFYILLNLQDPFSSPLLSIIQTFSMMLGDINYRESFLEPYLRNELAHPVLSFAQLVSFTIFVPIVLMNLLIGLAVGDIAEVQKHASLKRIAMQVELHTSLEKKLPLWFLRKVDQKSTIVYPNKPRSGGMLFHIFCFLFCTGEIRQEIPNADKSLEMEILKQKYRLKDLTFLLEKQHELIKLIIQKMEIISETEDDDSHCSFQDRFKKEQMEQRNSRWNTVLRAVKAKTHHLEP

| Compound | pIC50 |
| --- | --- |
| CN(CC(=O)NCc1cccc(-c2ccc(C(F)(F)F)cc2)c1)S(=O)(=O)c1ccc(F)cc1 [Example 1, 2-[(4-Fluoro-benzenesulfonyl)-methyl-amino]-N-(4′-trifluoromethyl-biphenyl-3-ylmethyl)-acetamide] | 7.09 |
| C[C@@H](C(=O)NCc1cccc(-c2ccc(C(F)(F)F)cc2)c1)N(C)S(=O)(=O)c1ccc(F)cc1 [Example 2, (S)-2-[(4-Fluoro-benzenesulfonyl)-methyl-amino]-N-(4′-trifluoromethyl-biphenyl-3-ylmethyl)-propionamide] | 7.46 |
| O=C(CNS(=O)(=O)c1ccc(F)cc1)NCc1cccc(-c2ccc(C(F)(F)F)cc2)c1 [Example 3, 2-(4-Fluoro-benzenesulfonylamino)-N-(4′-trifluoromethyl-biphenyl-3-ylmethyl)-acetamide] | 5.97 |
| C[C@H](C(=O)NCc1cccc(-c2ccc(C(F)(F)F)cc2)c1)N(C)S(=O)(=O)c1ccc(F)cc1 [Example 4, (R)-2-[(4-Fluoro-benzenesulfonyl)-methyl-amino]-N-(4′-trifluoromethyl-biphenyl-3-ylmethyl)-propionamide] | 5.95 |
| CC(C)[C@@H](C(=O)NCc1cccc(-c2ccc(C(F)(F)F)cc2)c1)N(C)S(=O)(=O)c1ccc(F)cc1 [Example 5, (S)-2-[(4-Fluoro-benzenesulfonyl)-methyl-amino]-3-methyl-N-(4′-trifluoromethyl-biphenyl-3-ylmethyl)-butyramide] | 5.79 |
| CC(C)[C@H](C(=O)NCc1cccc(-c2ccc(C(F)(F)F)cc2)c1)N(C)S(=O)(=O)c1ccc(F)cc1 [Example 6, (R)-2-[(4-Fluoro-benzenesulfonyl)-methyl-amino]-3-methyl-N-(4′-trifluoromethyl-biphenyl-3-ylmethyl)-butyramide] | 5.95 |
| CN(C(C)(C)C(=O)NCc1cccc(-c2ccc(C(F)(F)F)cc2)c1)S(=O)(=O)c1ccc(F)cc1 [Example 7, 2-[(4-Fluoro-benzenesulfonyl)-methyl-amino]-2-methyl-N-(4′-trifluoromethyl-biphenyl-3-ylmethyl)-propionamide] | 6.10 |
| CN(CC(=O)NCc1ccc(F)c(-c2ccc(C(F)(F)F)cc2)c1)S(=O)(=O)c1ccc(F)cc1 [Example 8, 2-[(4-Fluoro-benzenesulfonyl)-methyl-amino]-N-(6-fluoro-4′-trifluoromethyl-biphenyl-3-ylmethyl)-acetamide] | 6.82 |
| CN(CC(=O)NCc1cccc(-c2ccc(C(F)(F)F)cc2)c1F)S(=O)(=O)c1ccc(F)cc1 [Example 9, 2-[(4-Fluoro-benzenesulfonyl)-methyl-amino]-N-(2-fluoro-4′-trifluoromethyl-biphenyl-3-ylmethyl)-acetamide] | 5.82 |
| CN(CC(=O)NCc1ccc(-c2ccc(C(F)(F)F)cc2)cc1)S(=O)(=O)c1ccc(F)cc1 [Example 10, 2-[(4-Fluoro-benzenesulfonyl)-methyl-amino]-N-(4′-trifluoromethyl-biphenyl-4-ylmethyl)-acetamide] | 5.32 |
| CN(CC(=O)NCc1cc(F)cc(-c2ccc(C(F)(F)F)cc2)c1)S(=O)(=O)c1ccc(F)cc1 [Example 11, 2-[(4-Fluoro-benzenesulfonyl)-methyl-amino]-N-(5-fluoro-4′-trifluoromethyl-biphenyl-3-ylmethyl)-acetamide] | 6.89 |

More lines, now with the values ahead:

| pIC50 | Compound |
| --- | --- |
| 7.32 | CN(CC(=O)NCc1cc(-c2ccc(C(F)(F)F)cc2)ccc1F)S(=O)(=O)c1ccc(F)cc1 [Example 12, 2-[(4-Fluoro-benzenesulfonyl)-methyl-amino]-N-(4-fluoro-4′-trifluoromethyl-biphenyl-3-ylmethyl)-acetamide] |
| 6.59 | O=C(CN(CC(F)(F)F)S(=O)(=O)c1ccc(F)cc1)NCc1cccc(-c2ccc(C(F)(F)F)cc2)c1 [Example 13, 2-[(4-fluoro-benzenesulfonyl)-(2,2,2-trifluoro-ethyl)-amino]-N-(4′-trifluoromethyl-biphenyl-3-ylmethyl)-acetamide] |
| 7.43 | CCN(CC(=O)NCc1ccc(F)c(-c2ccc(C(F)(F)F)cc2)c1)S(=O)(=O)c1ccc(F)cc1 [Example 14, 2-[Ethyl-(4-fluoro-benzenesulfonyl)-amino]-N-(6-fluoro-4′-trifluoromethyl-biphenyl-3-ylmethyl)-acetamide] |
| 7.55 | CCN(CC(=O)NCc1cc(F)cc(-c2ccc(C(F)(F)F)cc2)c1)S(=O)(=O)c1ccc(F)cc1 [Example 15, 2-[Ethyl-(4-fluoro-benzenesulfonyl)-amino]-N-(5-fluoro-4′-trifluoromethyl-biphenyl-3-ylmethyl)-acetamide] |
| 7.62 | CCN(CC(=O)NCc1cc(-c2ccc(C(F)(F)F)cc2)ccc1F)S(=O)(=O)c1ccc(F)cc1 [Example 16, 2-[Ethyl-(4-fluoro-benzenesulfonyl)-amino]-N-(4-fluoro-4′-trifluoromethyl-biphenyl-3-ylmethyl)-acetamide] |
| 5.32 | CCN(CC(=O)NCc1ccc(-c2ccc(C(F)(F)F)cc2)cc1)S(=O)(=O)c1ccc(F)cc1 [Example 17, 2-[Ethyl-(4-fluoro-benzenesulfonyl)-amino]-N-(4′-trifluoromethyl-biphenyl-4-ylmethyl)-acetamide] |
| 5.32 | CCN(CC(=O)NCc1ccc(-c2cccc(C(F)(F)F)c2)cc1)S(=O)(=O)c1ccc(F)cc1 [Example 18, 2-[Ethyl-(4-fluoro-benzenesulfonyl)-amino]-N-(3′-trifluoromethyl-biphenyl-4-ylmethyl)-acetamide] |
| 7.01 | O=C(CN(CCO)S(=O)(=O)c1ccc(F)cc1)NCc1cccc(-c2ccc(C(F)(F)F)cc2)c1 [Example 19, 2-[(4-Fluoro-benzenesulfonyl)-(2-hydroxy-ethyl)-amino]-N-(4′-trifluoromethyl-biphenyl-3-ylmethyl)-acetamide] |
| 6.80 | CC(O)CN(CC(=O)NCc1cccc(-c2ccc(C(F)(F)F)cc2)c1)S(=O)(=O)c1ccc(F)cc1 (stereo not shown) [Example 20, 2-[(4-Fluoro-benzenesulfonyl)-(2-hydroxy-propyl)-amino]-N-(4′-trifluoromethyl-biphenyl-3-ylmethyl)-acetamide] |
| 7.01 | CN(CC(=O)NCc1cc(-c2ccc(C(F)(F)F)cc2)ncn1)S(=O)(=O)c1ccc(F)cc1 [Example 21, 2-[(4-Fluoro-benzenesulfonyl)-methyl-amino]-N-[6-(4-trifluoromethyl-phenyl)-pyrimidin-4-ylmethyl]-acetamide] |
| 6.72 | O=C(CN(C1CC1)S(=O)(=O)c1ccc(F)cc1)NCc1cccc(-c2ccc(C(F)(F)F)cc2)c1 [Example 22, 2-[Cyclopropyl-(4-fluoro-benzenesulfonyl)-amino]-N-(4′-trifluoromethyl-biphenyl-3-ylmethyl)-acetamide] |
| 7.54 | CCN(CC(=O)NCc1cccc(-c2ccc(C(F)(F)F)cc2)c1)S(=O)(=O)c1ccc(F)cc1 [Example 23, 2-[Ethyl-(4-fluoro-benzenesulfonyl)-amino]-N-(4′-trifluoromethyl-biphenyl-3-ylmethyl)-acetamide] |
| 5.99 | O=C(NCc1cccc(-c2ccc(C(F)(F)F)cc2)c1)C(NS(=O)(=O)c1ccc(F)cc1)C1CC1 (stereo not shown) [Example 24, 2-cyclopropyl-2-(4-fluoro-benzenesulfonylamino)-N-(4′-trifluoromethyl-biphenyl-3-ylmethyl)-acetamide] |
| 7.38 | CN(CC(=O)NCc1cc(-c2ccc(C(F)(F)F)cc2)ncn1)S(=O)(=O)c1ccc(Cl)s1 [Example 25, 2-[(5-chloro-thiophene-2-sulfonyl)-methyl-amino]-N-[6-(4-trifluoromethyl-phenyl)-pyrimidin-4-ylmethyl]-acetamide] |
